Laboratory results from ChEMBL document CHEMBL5233242, “Dihydrofolate reductase inhibitors for use as antimicrobial agents” (Eur J Med Chem, 2020).
In brackets after ≈: the same amount, converted by molar mass. Several values for one entry are separate records, joined by “and”; a condition that tells them apart may be missing. Equal entries are not always repeated.

Tests used:
[1] = Inhibition of Staphylococcus aureus DHFR F98Y mutant
[2] = system: Mycobacterium tuberculosis; assay: Antibacterial activity against Mycobacterium tuberculosis H37Rv incubated for 7 days by resazurin dye based broth microdilution assay; format: functional; conditions: 168 h, time 7 day
Dihydrofolate reductase [3] = target: T1, Dihydrofolate reductase (Mycobacterium tuberculosis, UniProt P9WNX1)
T1 sequence (P9WNX1 whole entry): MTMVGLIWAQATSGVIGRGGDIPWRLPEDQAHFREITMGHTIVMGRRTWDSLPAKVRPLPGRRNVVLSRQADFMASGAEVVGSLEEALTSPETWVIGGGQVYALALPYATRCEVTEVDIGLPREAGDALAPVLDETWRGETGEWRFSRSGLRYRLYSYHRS
Description: Inhibition of Mycobacterium tuberculosis DHFR

[4] = system: Mycobacterium tuberculosis; assay: Antibacterial activity against Mycobacterium tuberculosis Erdman; format: functional
[5] = system: Mycobacterium tuberculosis; assay: Antibacterial activity against Mycobacterium tuberculosis H37Rv; format: functional
Escherichia coli [6] = assay: Antibacterial activity against Escherichia coli ATCC 25922; format: functional
Escherichia coli [7] = assay: Antibacterial activity against Escherichia coli NR698; format: functional
[8] = Cytotoxicity against african green monkey Vero cells; format: toxicity, cell-based; conditions: chlorocebus sabaeus
Staphylococcus aureus [9] = assay: Antibacterial activity against Staphylococcus aureus ATCC 43300 harboring wild type DHFR; format: functional
Staphylococcus aureus [10] = assay: Antibacterial activity against Staphylococcus aureus harboring DHFR F98Y mutant; format: functional
Dihydrofolate reductase [11] = target: T2, Dihydrofolate reductase (Staphylococcus aureus, UniProt P0A017); assay: Inhibition of wild type Staphylococcus aureus DHFR
T2 sequence (P0A017 whole entry): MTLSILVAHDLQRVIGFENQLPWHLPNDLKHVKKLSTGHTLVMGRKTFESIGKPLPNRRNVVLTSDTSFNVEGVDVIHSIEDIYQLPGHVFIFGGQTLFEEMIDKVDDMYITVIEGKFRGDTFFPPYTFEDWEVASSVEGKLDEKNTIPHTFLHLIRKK

Dihydrofolate reductase [12] = target: T2, Dihydrofolate reductase; assay: Inhibition of Staphylococcus aureus DHFR
[13] = system: Mycobacterium tuberculosis; assay: Antibacterial activity against Mycobacterium tuberculosis H37Ra; format: functional
Staphylococcus aureus [14] = assay: Antibacterial activity against Staphylococcus aureus RN4220 harboring wild type DHFR; format: functional
Staphylococcus aureus [15] = assay: Antibacterial activity against methicillin resistant Staphylococcus aureus CCARM3167; format: functional
Staphylococcus aureus [16] = assay: Antibacterial activity against Staphylococcus aureus ATCC 29213 harboring wild type DHFR; format: functional
[17] = Inhibition of Pseudomonas aeruginosa DHFR
Pseudomonas aeruginosa [18] = assay: Antibacterial activity against Pseudomonas aeruginosa PA01; format: functional
Pseudomonas aeruginosa [19] = assay: Synergistic antibacterial activity against Pseudomonas aeruginosa PA01 assessed as fractional inhibitory concentration index in presence of gallic acid; format: functional
Pseudomonas aeruginosa [20] = assay: Synergistic antibacterial activity against Pseudomonas aeruginosa PA01 assessed as fractional inhibitory concentration index in presence of myricetin; format: functional
Pseudomonas aeruginosa [21] = assay: Synergistic antibacterial activity against Pseudomonas aeruginosa PA01 assessed as fractional inhibitory concentration index in presence of quercetin; format: functional
Pseudomonas aeruginosa [22] = assay: Synergistic antibacterial activity against Pseudomonas aeruginosa PA01 assessed as fractional inhibitory concentration index in presence of protocatechuic acid; format: functional

SMILES: CCC[C@H]1c2ccccc2C=NN1C(=O)/C=C/c1cc(Cc2cnc(N)nc2N)cc(OC)c1OC
- IC50 [1]: 0.0018 µM

SMILES: COc1ccc(-c2nc3ccccc3c(=O)[nH]2)cc1
- MIC [2]: 125 µM and 31.5 µg/mL
- IC50 (Dihydrofolate reductase [3]): 49.1 µM

SMILES: O=c1[nH]c(=O)c2c(ncn2Cc2ccccc2)[nH]1
- MIC [2]: 130 µM and 31.5 µg/mL
- IC50 (Dihydrofolate reductase [3]): 38.6 µM

SMILES: CCc1nc(N)nc(N)c1C#C[C@H](C)c1cc(OC)cc(-c2ccc(C(=O)O)cc2)c1
- MIC [4]: < 0.072 µM
- MIC [5]: < 0.072 µM

SMILES: CCc1nc(N)nc(N)c1C#C[C@@H](C)c1cc(OC)cc(-c2ccc(C(=O)O)cc2)c1
- MIC (Escherichia coli [6]): 24 µM (≈ 10 µg/mL)
- MIC (Escherichia coli [7]): 0.0075 µM (≈ 0.00312 µg/mL)

SMILES: CCc1nc(N)nc(N)c1C#CCc1cc(OC)cc(-c2ccc(C(=O)O)cc2)c1
- MIC [4]: 1.24 µM (≈ 0.5 µg/mL)
- MIC [5]: 0.311 µM (≈ 0.125 µg/mL)

SMILES: Nc1nc(N)nc(-c2ccc(OCc3ccc(Cl)cc3)cc2)n1
- MIC [5]: 1.76 µM (≈ 0.577 µg/mL)
- CC50 [8]: 464 µM

SMILES: CCCCc1nc(Cl)c(C2NC(=O)NC(C)=C2C(=O)Nc2ccc(F)cc2)[nH]1 (stereo not drawn)
- MIC [5]: 0.96 µM (≈ 0.39 µg/mL)
- IC50 (Dihydrofolate reductase [3]): > 24.6 µM

SMILES: CCc1nc(N)nc(N)c1C#C[C@H](C)c1cc(OC)cc(-c2ccncc2)c1
- MIC (Staphylococcus aureus [9]): 0.874 µM (≈ 0.326 µg/mL)
- MIC (Staphylococcus aureus [10]): 14 µM (≈ 5.22 µg/mL)
- IC50 (Dihydrofolate reductase [11]): 0.015 µM
- IC50 [1]: 0.51 µM

SMILES: Cc1ccc(CN2C(=O)/C(=C3\SC(=S)N(C(=O)O)C3=O)c3ccccc32)cc1
- IC50 (Dihydrofolate reductase [12]): 0.46 µM

SMILES: COc1cc(-c2nc(N)nc(N)n2)ccc1OCc1ccc(F)cc1
- MIC [5]: 3.39 µM (≈ 1.16 µg/mL)
- CC50 [8]: 360 µM

SMILES: Nc1nc(N)c(-c2ccc(C(=O)Nc3cccc(OC(F)(F)F)c3)cc2)c(OCc2cncs2)n1
- MIC [13]: 12.4 µM and 6.25 µg/mL

SMILES: COc1ccc(-c2nc(N)nc(N)n2)cc1Oc1ccc(Cl)cc1
- MIC [5]: 4.92 µM (≈ 1.69 µg/mL)
- CC50 [8]: 335 µM

SMILES: Nc1nc(N)c2c(ccc3c2ccn3Cc2ccc3ccccc3c2)n1
- MIC95 [5]: 3.12 µM (≈ 1.06 µg/mL)
- IC50 (Dihydrofolate reductase [3]): 0.00096 µM

SMILES: CC[C@@H]1CC[C@H]2C(CC)(CC)[C@H](O)CC[C@]2(CC)[C@@]12Cc1c(O)cc3c(c1O2)COC3=O
- MIC (Staphylococcus aureus [14]): 72.3 µM (≈ 32 µg/mL)
- IC50 (Dihydrofolate reductase [11]): 41.5 µM
- MIC (Staphylococcus aureus [15]): 72.3 µM (≈ 32 µg/mL)

SMILES: CCc1nc(N)nc(N)c1C#C[C@@H](C)c1cc(OC)cc(-c2ccncc2)c1
- MIC (Staphylococcus aureus [9]): 0.11 µM (≈ 0.0411 µg/mL)
- MIC (Staphylococcus aureus [10]): 1.75 µM (≈ 0.653 µg/mL)
- IC50 (Dihydrofolate reductase [11]): 0.018 µM
- IC50 [1]: 0.111 µM

SMILES: CCCc1cc(N)cc(N)c1Cc1cc(/C=C/C(=O)N2N=Cc3ccccc3C2C=C(C)C)c(OC)c(OC)c1 (stereo not drawn)
- MIC (Staphylococcus aureus [16]): 3.72 µM (≈ 2 µg/mL)
- Ki (Dihydrofolate reductase [11]): 0.004 µM

SMILES: Nc1nc(N)c2cc(C(F)(F)F)ccc2n1
- MIC99 [5]: 207 µM (≈ 47.2 µg/mL)

SMILES: O=C(O[C@@H]1Cc2c(O)cc(O)cc2O[C@@H]1c1cc(O)c(O)c(O)c1)c1cc(O)c(O)c(O)c1 [EPIGALOCATECHIN GALLATE]
- MIC [5]: 4.25 µM (≈ 1.95 µg/mL)
- IC50 (Dihydrofolate reductase [3]): 10.9 µM

SMILES: O=C(O)c1cc(O)c(O)c(O)c1 [GALLIC ACID]
- IC50 [17]: 9620 µM

SMILES: O=c1c(O)c(-c2cc(O)c(O)c(O)c2)oc2cc(O)cc(O)c12 [MYRICETIN]
- MIC (Pseudomonas aeruginosa [18]): 1550 µM (≈ 493 µg/mL)
- IC50 [17]: 520 µM

SMILES: O=C(O)c1ccc(O)c(O)c1 [PROTOCATECHUIC ACID]
- IC50 [17]: 10700 µM

SMILES: O=c1c(O)c(-c2ccc(O)c(O)c2)oc2cc(O)cc(O)c12 [QUERCETIN]
- MIC (Pseudomonas aeruginosa [18]): 1650 µM (≈ 499 µg/mL)
- IC50 [17]: 595 µM

SMILES: Cc1cc(NS(=O)(=O)c2ccc(N)cc2)no1 [SULFAMETHOXAZOLE]
- fractional inhibitory concentration index (FICI) (Pseudomonas aeruginosa [19]): 0.38
- MIC (Pseudomonas aeruginosa [18]): 500 µM (≈ 127 µg/mL)
- fractional inhibitory concentration index (FICI) (Pseudomonas aeruginosa [20]): 0.38
- fractional inhibitory concentration index (FICI) (Pseudomonas aeruginosa [21]): 0.38
- fractional inhibitory concentration index (FICI) (Pseudomonas aeruginosa [22]): 0.25
- IC50 [17]: 140 µM

SMILES: COc1cc(Cc2cnc(N)nc2N)cc(OC)c1OC [TRIMETHOPRIM]
- MIC (Pseudomonas aeruginosa [18]): 110 µM (≈ 31.9 µg/mL)
- IC50 [17]: 88.7 µM
